Experiments:
huPPARα = target: T1, huPPARα (Homo sapiens, UniProt Q07869); assay: Cotransfection assay in CV-1 cells, GAL4 chimeric system, luciferase reporter
T1 sequence (Q07869 200-468 limits assumed): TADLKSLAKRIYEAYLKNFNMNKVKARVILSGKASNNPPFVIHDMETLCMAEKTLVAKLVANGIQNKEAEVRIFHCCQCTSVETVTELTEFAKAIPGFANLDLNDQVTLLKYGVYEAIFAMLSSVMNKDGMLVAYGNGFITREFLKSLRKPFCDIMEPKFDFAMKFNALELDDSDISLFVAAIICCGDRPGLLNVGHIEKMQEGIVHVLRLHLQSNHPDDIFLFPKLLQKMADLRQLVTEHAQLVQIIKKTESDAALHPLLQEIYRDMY
Experimental: (§1) Cotransfection assays are carried out in CV-1 cells. The reporter plasmid contains an acylCoA oxidase (AOX) PPRE and TK promoter upstream of the luciferase reporter cDNA. Appropriate PPARs and RXRα are constitutively expressed using plasmids containing the CMV promoter. Since for PPARα and PPARβ, interference by endogenous PPARγ in CV-1 cells is an issue, in order to eliminate such interference, a GAL4 chimeric system is used in which the DNA binding domain of the transfected PPAR is replaced by that of GAL4, and the GAL4 response element is utilized in place of the AOX PPRE. Receptor activation by compounds of the present invention is determined relative to PPARα agonist and PPARγ agonist reference molecules to obtain percent efficacies. EC50 values are determined by computer fit to a concentration-response curve. […] In some cases, a single high concentration of agonist (10 μM) was used.

huPPARδ = target: T2, huPPARδ (Homo sapiens, UniProt Q03181); assay: as above
T2 sequence (Q03181 211-441 limits assumed): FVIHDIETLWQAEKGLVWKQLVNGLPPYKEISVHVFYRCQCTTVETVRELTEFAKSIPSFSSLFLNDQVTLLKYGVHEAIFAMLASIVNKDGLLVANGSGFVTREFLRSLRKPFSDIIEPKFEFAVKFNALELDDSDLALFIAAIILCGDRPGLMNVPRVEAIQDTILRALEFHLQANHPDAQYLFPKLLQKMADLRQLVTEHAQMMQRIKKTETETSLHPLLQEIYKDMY
Experimental: as §1

huPPARγ = target: T3, huPPARγ (Homo sapiens, UniProt P37231); assay: Cotransfection assay in CV-1 cells, AOX PPRE luciferase reporter; assay type: cell-based
T3 construct: expressed in transfected cells; host or cells: CV-1 cells
T3 sequence (P37231 1-505): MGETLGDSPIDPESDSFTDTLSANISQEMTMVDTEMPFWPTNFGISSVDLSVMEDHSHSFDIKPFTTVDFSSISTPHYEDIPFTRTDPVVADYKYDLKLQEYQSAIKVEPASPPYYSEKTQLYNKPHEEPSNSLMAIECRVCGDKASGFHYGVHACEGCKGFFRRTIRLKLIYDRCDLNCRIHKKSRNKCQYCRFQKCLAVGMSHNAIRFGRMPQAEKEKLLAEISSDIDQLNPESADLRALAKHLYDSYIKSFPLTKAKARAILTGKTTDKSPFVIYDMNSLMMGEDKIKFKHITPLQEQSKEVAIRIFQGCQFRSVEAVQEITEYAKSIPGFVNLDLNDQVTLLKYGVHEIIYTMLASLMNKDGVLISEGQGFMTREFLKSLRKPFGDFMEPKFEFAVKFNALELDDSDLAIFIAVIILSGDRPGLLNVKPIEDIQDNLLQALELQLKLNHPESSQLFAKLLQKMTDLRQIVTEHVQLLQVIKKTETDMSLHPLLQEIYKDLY
T3 sequence (P19793 1-462 partner): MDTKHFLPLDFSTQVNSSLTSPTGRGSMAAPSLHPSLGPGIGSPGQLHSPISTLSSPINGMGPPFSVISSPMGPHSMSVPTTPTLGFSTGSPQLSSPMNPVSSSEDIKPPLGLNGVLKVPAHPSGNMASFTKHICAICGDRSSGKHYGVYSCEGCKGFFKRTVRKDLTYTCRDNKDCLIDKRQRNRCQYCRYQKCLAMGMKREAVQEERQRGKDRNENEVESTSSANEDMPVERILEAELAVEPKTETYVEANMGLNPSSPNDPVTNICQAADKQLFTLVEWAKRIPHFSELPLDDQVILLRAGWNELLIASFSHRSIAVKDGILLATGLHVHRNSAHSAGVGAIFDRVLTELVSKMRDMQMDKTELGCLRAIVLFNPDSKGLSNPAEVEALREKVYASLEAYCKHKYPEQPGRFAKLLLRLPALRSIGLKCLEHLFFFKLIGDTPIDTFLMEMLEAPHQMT
Experimental: as §1

hu apoAI transgenic mice = assay: Evaluation of triglyceride and cholesterol level in HuapoAI transgenic mice; assay type: in vivo; details: 100 mg/kg oral gavage daily for 7 days

EC50 (huPPARα)	Emax (huPPARα; CV-1, read-out: Eff % α)	EC50 (huPPARδ)	Emax (huPPARδ; CV-1, read-out: Eff % δ)	Emax (huPPARγ; CV-1, Table 4, percent efficacy relative to reference agonist, read-out: Eff % γ)	EC50 (huPPARγ; Table 4, effect of X/Y, scaffold drawing 255)	SMILES	high-density lipoprotein cholesterol (HDLc) peak area (hu apoAI transgenic mice; FPLC of pooled sera, vehicle 47 to 62 v-sec)	mean percent increase of HDLc (hu apoAI transgenic mice; FPLC of pooled sera, versus vehicle)	average triglycerides values (hu apoAI transgenic mice; serum, vehicle about 60 to 80 mg/dl)	mean elevation of total serum cholesterol (hu apoAI transgenic mice; versus vehicle)	mean reduction of triglycerides (hu apoAI transgenic mice; versus vehicle)
2890 nM	39%	23 nM	112%	63%	262 nM	CCc1ccc(OC(C)CCSc2ccc(OCC(=O)O)c(C)c2)c(C(=O)c2ccccc2)c1 (centres unmarked) [S/O]					
						CC(C)OC(=O)C(C)(C)Oc1ccc(C(=O)c2ccc(Cl)cc2)cc1 [fenofibrate]	68-96 v-sec	48%	33 to 58 mg/dL	41%	37%

Reference: patent publication US20060257987A1, “Ppar modulators” (priority 2003, published 2006)
